Test results taken from patent US20250282802A1, “P[…] AND METHODS” (priority 2020, published 2025).
Where two headings read alike, the source gives them in different places.

Experiments:
[1] = test system: Aspergillus fumigatus 1163; assay: Fungicidal bioassay (MIC), Aspergillus fumigatus; assay type: cell-based; settings: for MIC: Aspergillus fumigatus, 1163, 48 hrs growth, CLSI
Protocol: Bacteria, plasmids and growth conditions. Bacterial strains, plasmids and primers used in this study are described in Table 3 and 4. General chemical and molecular biology reagents were purchased from Sigma-Aldrich or New England Biolabs. Phosphinothricin (glufosinate) was purchased from GoldBio (CAS #77182-82-2). Standard bacterial growth media were prepared as described (Current Protocols in Molecular Biology 2019, 125:e81, e82, e83). E. coli strains were typically grown at 37° C.; P. ananatis strains were typically grown at 30° C. Phosphonate induction media (PIM) was prepared as follows: 8.37 g/L MOPS, 0.72 g/L Tricine, 0.58 g/L NaCl, 0.51 g/L NH4Cl, 1.6 g/L KOH, 0.1 g/L MgCl2·6H2O, 0.05 g/L K2SO4, 0.2 g/L K2HIPO4 were dissolved H2O and steam sterilized for 20 min at 121° C. After cooling, 1× sterile trace element solution was added (1000× stock: 1.5 g/L nitrilotriacetic acid trisodium salt, 0.8 g/L Fe(NH4)2(SO4)2·7H2O, 0.2 g/L Na2SeO3, 0.1 g/L CoCl2·6H2O, 0.1 g/L MnSO4·H2O, 0.1 g/L Na2MoO4·2H2O, 0.1 g/L Na2WO4·2H2O, 0.1 g/L ZnSO4·7H2O, 0.1 g/L NiCl2·6H2O, 0.01 g/L H3BO3, 0.01 g/L CuSO4·5H2O) followed by addition of 1% (v/v) sterile glycerol and 50 μg/mL sterile kanamycin. For culturing of Candida and Saccharomyces strains, Rosewell Park Memorial Institute 1640 medium (RPMI; Sigma-Aldrich R6504) was used for liquid culturing and Sabouraud Dextrose Agar (SDA; Difco™ 210950) for solid plating unless otherwise specified. For Aspergillus strains, Rosewell Park Memorial Institute 1640 medium (RPMI) was used for liquid culturing and Potato Dextrose Agar (PDA; Difco™ 213400) was used for solid plating unless otherwise specified. YMM medium (6.7 g/L yeast nitrogen base without amino acids [BD Difco™ 291940], 20 g/L glucose, 1× trace element solution) was used as minimal media for fungal strains.
Fungicidal bioassays. […] Minimum Inhibitory Concentration (MIC) was determined visually by finding the concentration of compound at which there was no visual difference between that concentration and the uninoculated media control.

HOS (human osteosarcoma) = assay: Cell culture cytotoxicity screening (Alamar Blue), HOS; assay type: cell-based; settings: 72 hours
Protocol: FIG. 8. Cytotoxicity of pantaphos across various cancer cell lines. Assays were conducted as described (mBio. 2021 Feb. 2; 12(1):e03402-20), using the Alamar Blue method with 72-hour treatment using Raptinal ([…]) as Dead cell control; n=3. Cell seeding densities: CT26 (colon carcinoma) 2000 c/w; HOS (osteosarcoma) 2500 c/w; ES-2 (ovarian carcinoma), HCT-116 (colorectal carcinoma), A-549 (lung carcinoma), A-172 (glioblastoma), D54 (glioblastoma), U87 (glioblastoma), T98G (glioblastoma), SK-ML-28 (melanoma), MCF-7 (breast cancer), AM38 (glioblastoma) and MDA-MB-231 (breast cancer) 3000 c/w; U118MG (malignant glioma) 4000 c/w; HepG2 (liver cancer) 8000 c/w. c/w=cells per well. […]
Cell culture cytotoxicity screening. The compounds were evaluated for their ability to kill cancer cell lines in culture, using HOS (osteosarcoma); ES-2 (ovarian cancer); HCT 116 (colon cancer); A549 (lung carcinoma); and A172 (glioma) cells. Human skin fibroblast cells (HFF-1) were also assessed. […] 72 hours post-treatment, cell viability was assessed using the Alamar Blue method (http://www.bio-rad-antibodies.com/measuring-cytotoxicity-proliferation-spectrophotometry-fluorescence-alamarBlue.html). […] Conversion of Alamar Blue was measured with a plate reader (SpectraMax M3; Molecular Devices) by fluorescence (excitation wavelength: 555 nm; emission wavelength: 585 nm; cutoff 570 nm; autogain). […]

SMILES: O=C(O)/C=C(\C(=O)O)C(O)P(=O)(O)O (centres unmarked) [pantaphos, 2-(hydroxy(phosphono)methyl)maleate]
- MIC ([1]; M9 minimal medium, read-out: MIC, Minimal medium): > 125 µM
- MIC ([1]; RPMI 1640 medium, read-out: MIC, Rich medium): > 125 µM
- effect on the growth of fungi, in words ([1]; rich or minimal media): no effect on the growth
- IC50 (HOS (human osteosarcoma)): 37 ± 6.28 µM
- Emax (HOS (human osteosarcoma); read-out: Emax = percentage cell death (converted)): 58%
